From ChEMBL document CHEMBL1152284, “The contribution of plukenetione A to the anti-tumoral activity of Cuban propolis” (Bioorg Med Chem, 2008)
In brackets after ≈: the same amount, converted by molar mass. Activity calls are given as the source filed them. No cut-off for these calls is given here.

What was measured:
A2780 [1] = assay: Cytotoxicity against human A2780 cells after 24 hrs; type: functional, cell-based; conditions: A2780, 24 h
MCF7 [2] = assay: Cytotoxicity against 5-FU-resistant human MCF7 cells after 24 hrs; type: functional, cell-based; conditions: MCF7, 24 h
K562 = assay: Cytotoxicity against human K562 cells after 24 hrs; type: functional, cell-based; conditions: K562, 24 h
HT-29 [3] = assay: Cytotoxicity against SN38-resistant human HT-29 cells after 24 hrs; type: functional, cell-based; conditions: HT-29, 24 h
[4] = Cytotoxicity against human […] cells after 24 hrs; type: cell-based
HCT-8 [5] = assay: Cytotoxicity against raltitrexed-resistant human HCT8 cells after 24 hrs; type: functional, cell-based; conditions: HCT-8, 24 h
HCT-8 [6] = assay: Cytotoxicity against human HCT8 cells after 24 hrs; type: functional, cell-based; conditions: HCT-8, 24 h
[7] = Cytotoxicity against cisplatin-resistant human LAN1 cells after 24 hrs; type: functional, cell-based; conditions: LAN1, 24 h
[8] = Cytotoxicity against human LAN1 cells after 24 hrs; type: functional, cell-based; conditions: LAN1, 24 h
[9] = Cytotoxicity against human M51 cells after 24 hrs; type: functional, cell-based; conditions: M51, 24 h
HEK293 = assay: Cytotoxicity against HEK293 cells after 24 hrs; type: cell-based; conditions: Homo sapiens, HEK293, 24 h
[10] = Cytotoxicity against etoposide-resistant human LAN1 cells after 24 hrs; type: functional, cell-based; conditions: LAN1, 24 h
HCT-8 [11] = assay: Cytotoxicity against SN38-resistant human HCT8 cells after 24 hrs; type: functional, cell-based; conditions: HCT-8, 24 h
LNCaP [12] = assay: Cytotoxicity against human LNCAP cells after 24 hrs; type: functional, cell-based
MCF7 [13] = assay: Cytotoxicity against human MCF7 cells after 24 hrs; type: functional, cell-based; conditions: MCF7, 24 h
A2780 [14] = assay: Cytotoxicity against doxorubicin-resistant human A2780 cells after 24 hrs; type: functional, cell-based; conditions: A2780, 24 h
A2780 [15] = assay: Cytotoxicity against cisplatin-resistant human A2780 cells after 24 hrs; type: functional, cell-based; conditions: A2780, 24 h
HT-29 [16] = assay: Cytotoxicity against human HT-29 cells after 24 hrs; type: functional, cell-based; conditions: HT-29, 24 h
[17] = Cytotoxicity against cisplatin-resistant human M51 cells after 24 hrs; type: functional, cell-based; conditions: M51, 24 h
LNCaP [18] = assay: Cytotoxicity against etoposide-resistant human LNCAP cells after 24 hrs; type: functional, cell-based
[19] = Cytotoxicity against 5-FU-resistant human LAN1 cells after 24 hrs; type: functional, cell-based; conditions: LAN1, 24 h
PC-3 = assay: Cytotoxicity against human PC3 cells after 24 hrs; type: functional, cell-based; conditions: PC-3, 24 h
HT-29 [20] = assay: Cytotoxicity against 5-FU-resistant human HT-29 cells after 24 hrs; type: functional, cell-based; conditions: HT-29, 24 h
Jurkat = assay: Cytotoxicity against human Jurkat cells after 24 hrs; type: functional, cell-based
NCI-H460 = assay: Cytotoxicity against human H460 cells after 24 hrs; type: functional, cell-based; conditions: NCI-H460, 24 h
MCF7 [21] = assay: Cytotoxicity against doxorubicin-resistant human MCF7 cells after 24 hrs; type: functional, cell-based; conditions: MCF7, 24 h
[22] = Antimetastatic activity in mouse EAC cells xenografted in NMRI mouse assessed as metastatic colony formation in lungs at 20 mg/kg, ip daily for 9 days relative to control; type: functional, Ehrlich; conditions: route intraperitoneal
HCT-8 [23] = assay: Cell cycle arrest in human HCT8 cells assessed as accumulation at G0/G1 phase at IC50 after 24 hrs by FACS analysis relative to control; type: functional
[24] = Inhibition of HIV reverse transcriptase; parameters: species or system Human immunodeficiency virus
HCT-8 [25] = assay: Decrease in EGF receptor gene expression in human HCT8 cells at 2.5 times IC50 after 24 hrs by RT-PCR; type: functional, cell-based
[26] = target: T1, DNA topoisomerase 1 (Homo sapiens) (UniProt P11387); assay: Inhibition of human topoisomerase 1-mediated relaxation of supercoiled pBR322 DNA up to 12.5 ug/mL after 30 mins by agarose gel electrophoresis
T1 sequence (whole entry): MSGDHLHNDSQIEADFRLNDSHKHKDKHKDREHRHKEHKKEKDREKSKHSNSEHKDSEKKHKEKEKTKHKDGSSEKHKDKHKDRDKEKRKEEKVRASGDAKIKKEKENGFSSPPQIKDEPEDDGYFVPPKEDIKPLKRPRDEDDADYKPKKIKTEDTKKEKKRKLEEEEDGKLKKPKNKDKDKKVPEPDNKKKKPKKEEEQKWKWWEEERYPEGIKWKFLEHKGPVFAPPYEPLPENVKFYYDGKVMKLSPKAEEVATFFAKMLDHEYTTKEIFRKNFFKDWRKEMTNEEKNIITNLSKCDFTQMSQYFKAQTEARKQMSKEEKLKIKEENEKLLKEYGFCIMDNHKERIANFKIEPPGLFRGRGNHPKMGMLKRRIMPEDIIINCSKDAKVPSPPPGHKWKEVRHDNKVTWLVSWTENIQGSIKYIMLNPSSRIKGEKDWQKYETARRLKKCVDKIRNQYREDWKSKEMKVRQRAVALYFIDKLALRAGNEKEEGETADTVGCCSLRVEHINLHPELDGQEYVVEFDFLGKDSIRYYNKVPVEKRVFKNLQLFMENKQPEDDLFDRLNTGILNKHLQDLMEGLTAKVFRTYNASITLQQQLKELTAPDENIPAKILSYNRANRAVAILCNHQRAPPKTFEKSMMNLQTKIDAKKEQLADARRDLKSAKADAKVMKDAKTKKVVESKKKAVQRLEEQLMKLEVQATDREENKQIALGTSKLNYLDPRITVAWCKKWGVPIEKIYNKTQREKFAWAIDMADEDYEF

HCT-8 [27] = assay: Cell cycle arrest in human HCT8 cells assessed as accumulation at G2/M phase at IC50 after 24 hrs by FACS analysis relative to control; type: functional
[28] = target: DNA polymerase I, thermostable (Thermus aquaticus, UniProt P19821); assay: Inhibition of Taq DNA polymerase
HCT-8 [29] = assay: Decrease in topoisomerase 2 beta gene expression in human HCT8 cells at 2.5 times IC50 after 24 hrs by RT-PCR; type: functional, cell-based
[30] = target: T1, DNA topoisomerase 1 (Homo sapiens); assay: Inhibition of human topoisomerase 1-mediated relaxation of supercoiled pBR322 DNA up to 6.25 ug/mL after 30 mins by agarose gel electrophoresis
HCT-8 [31] = assay: Cell cycle arrest in human HCT8 cells assessed as accumulation at S phase at IC50 after 24 hrs by FACS analysis relative to control; type: functional
HCT-8 [32] = assay: Decrease in multidrug-resistant related protein gene expression in human HCT8 cells at 2.5 times IC50 after 24 hrs by RT-PCR; type: functional, cell-based
HCT-8 [33] = assay: Induction of late apoptosis in [14C]D-thymidine labeled human HCT8 cells assessed DNA fragmentation treated at 2.5 times IC50 for 8 hrs measured after 24 hrs by liquid scintillation counter; type: functional, cell-based
[34] = Inhibition of Moloney murine leukemia virus reverse transcriptase
HCT-8 [35] = assay: Induction of late apoptosis in [14C]D-thymidine labeled human HCT8 cells assessed DNA fragmentation treated at 10 times IC50 for 8 hrs measured after 24 hrs by liquid scintillation counter; type: functional, cell-based

Sequence of DNA polymerase I, thermostable (P19821 whole entry): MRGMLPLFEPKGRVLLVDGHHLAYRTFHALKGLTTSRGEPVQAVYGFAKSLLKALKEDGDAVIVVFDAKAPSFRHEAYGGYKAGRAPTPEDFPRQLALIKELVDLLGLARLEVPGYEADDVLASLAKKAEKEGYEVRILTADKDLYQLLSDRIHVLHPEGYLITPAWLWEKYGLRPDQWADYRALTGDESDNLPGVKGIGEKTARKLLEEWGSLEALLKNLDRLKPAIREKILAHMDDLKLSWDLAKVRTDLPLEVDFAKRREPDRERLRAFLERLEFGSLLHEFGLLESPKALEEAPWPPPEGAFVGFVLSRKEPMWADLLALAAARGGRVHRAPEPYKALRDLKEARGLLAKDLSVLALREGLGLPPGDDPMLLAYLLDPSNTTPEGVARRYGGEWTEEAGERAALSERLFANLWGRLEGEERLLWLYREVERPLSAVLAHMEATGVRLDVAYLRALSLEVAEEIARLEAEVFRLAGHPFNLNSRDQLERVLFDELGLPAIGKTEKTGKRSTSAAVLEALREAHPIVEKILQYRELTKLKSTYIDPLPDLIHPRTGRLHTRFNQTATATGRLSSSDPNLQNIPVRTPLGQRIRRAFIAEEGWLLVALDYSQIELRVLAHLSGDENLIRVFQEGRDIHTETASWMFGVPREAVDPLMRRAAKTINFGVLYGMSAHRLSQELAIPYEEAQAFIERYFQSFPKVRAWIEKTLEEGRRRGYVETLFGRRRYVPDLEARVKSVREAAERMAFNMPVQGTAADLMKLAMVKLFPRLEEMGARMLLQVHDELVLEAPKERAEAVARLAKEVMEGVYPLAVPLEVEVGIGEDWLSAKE

Row | SMILES | IC50 (A2780 [1]) | IC50 (MCF7 [2]) | IC50 (HT-29 [3]) | IC50 [4] | IC50 (HCT-8 [5]) | IC50 (HCT-8 [6]) | IC50 [7] | IC50 [8] | IC50 [9] | IC50 (HEK293) | IC50 [10] | IC50 (HCT-8 [11]) | IC50 (LNCaP [12]) | IC50 (MCF7 [13]) | IC50 (A2780 [14]) | IC50 (A2780 [15]) | IC50 (HT-29 [16]) | IC50 [17] | IC50 (LNCaP [18]) | IC50 (MCF7 [21]) | further results
1 | CC(C)=CCC1=C(O)[C@@]2(C(=O)c3ccccc3)C(=O)[C@](CC=C(C)C)(C[C@H](CC=C(C)C)C2(C)C)C1=O | 9.2 µg/mL (≈ 18.3 µM) | 3.3 µg/mL (≈ 6.56 µM) | 3.5 µg/mL (≈ 6.96 µM) | 21.7 µg/mL (≈ 43.2 µM) | 4.44 µg/mL (≈ 8.83 µM) | 4.23 µg/mL (≈ 8.41 µM) | 8.44 µg/mL (≈ 16.8 µM) | 8.2 µg/mL (≈ 16.3 µM) | 5.7 µg/mL (≈ 11.3 µM) | 4.2 µg/mL (≈ 8.35 µM) | 9.18 µg/mL (≈ 18.3 µM) | 4.07 µg/mL (≈ 8.1 µM) | 2.12 µg/mL (≈ 4.22 µM) | 4.37 µg/mL (≈ 8.69 µM) | 6.75 µg/mL (≈ 13.4 µM) | 6.23 µg/mL (≈ 12.4 µM) | 5.25 µg/mL (≈ 10.4 µM) | 4.77 µg/mL (≈ 9.49 µM) | 1.81 µg/mL (≈ 3.6 µM) | 4.28 µg/mL (≈ 8.51 µM) | IC50 (K562): 4.2 µg/mL (≈ 8.35 µM); IC50 [19]: 8.24 µg/mL (≈ 16.4 µM); IC50 (PC-3): 2.01 µg/mL (≈ 4 µM); IC50 (HT-29 [20]): 5.18 µg/mL (≈ 10.3 µM); IC50 (Jurkat): 4.6 µg/mL (≈ 9.15 µM); IC50 (NCI-H460): 4.21 µg/mL (≈ 8.37 µM)
2 | O=c1[nH]cc(F)c(=O)[nH]1 [FLUOROURACIL] | – | – | – | – | – | – | – | – | – | – | – | – | – | – | – | – | – | – | – | – | Activity [22]: 23.8%
3 | COc1ccc([C@H]2COc3cc(O)ccc3C2)c(OC)c1O [MUCRONULATOL] | – | – | – | – | – | 2.6 µg/mL (≈ 8.6 µM) | 10.2 µg/mL (≈ 33.8 µM) | 10.1 µg/mL (≈ 33.4 µM) | – | 2.5 µg/mL (≈ 8.27 µM) | > 50 µg/mL | – | – | 2.52 µg/mL (≈ 8.34 µM) | – | – | – | – | – | > 50 µg/mL | IC50 [19]: 8.22 µg/mL (≈ 27.2 µM)
4 | CC(C)=CC[C@]12C[C@@H]3[C@H](C=C(C)C)[C@](CC=C(C)C)(C1=O)C(=O)[C@](C(=O)c1ccccc1)(C2=O)C3(C)C [PLUKENETIONE A] | 13.3 µg/mL (≈ 26.6 µM) | 10 µg/mL (≈ 20 µM) | 13.3 µg/mL (≈ 26.6 µM) | 15.7 µg/mL (≈ 31.4 µM) | 12.1 µg/mL (≈ 24.2 µM) | 12.9 µg/mL (≈ 25.8 µM) | – | – | 6.53 µg/mL (≈ 13 µM) | 32.1 µg/mL (≈ 64.1 µM) | – | 11.7 µg/mL (≈ 23.3 µM) | 1.98 µg/mL (≈ 3.95 µM) | 16.3 µg/mL (≈ 32.5 µM) | 14.5 µg/mL (≈ 28.9 µM) | 15.9 µg/mL (≈ 31.8 µM) | 12 µg/mL (≈ 24 µM) | 7.6 µg/mL (≈ 15.2 µM) | 1.72 µg/mL (≈ 3.44 µM) | 15 µg/mL (≈ 29.9 µM) | Activity (HCT-8 [23]): 52.1%; IC50 [24]: 1.5 µg/mL (≈ 3 µM); Activity (HCT-8 [25]): Active; Activity [26]: Active; Activity (HCT-8 [27]): 20.6%; IC50 [28]: 12.5 µM; Activity (HCT-8 [29]): Active; Activity [30]: Active; Activity (HCT-8 [31]): 4.3%; Activity (HCT-8 [32]): Active; Activity (HCT-8 [33]): Active; IC50 (HT-29 [20]): 14.2 µg/mL (≈ 28.4 µM); IC50 [34]: 1.5 µg/mL (≈ 3 µM); IC50 (Jurkat): 5.28 µg/mL (≈ 10.5 µM); IC50 (NCI-H460): 13.4 µg/mL (≈ 26.8 µM); Activity (HCT-8 [35]): Active
